The subject of the assay is c-MYC. As to the kind of experiment: c-MYC levels in CAL33 and BICR56 cells depleted of LZK. Type of assay: cell-based. The settings on record: 10 μM for six hours; LZK depleted 48 hours. Here is the method: CAL33 and BICR56 inducible knockdown cells were generated by SIRION Biotech. MSK921 was generated in-house using lentiviral particles provided by SIRION (generated by transfection of 293TN cells with expression vectors and lentiviral packaging plasmids). Transduction occurred at MOI 5 with 8 μg/mL polybrene. After 24 hours, medium was replaced with fresh medium containing puromycin (Invitrogen) to select for cells that had been effectively transduced. shRNA sequences were […] (sh1; SEQ ID NO: 19) and […] (sh2; SEQ ID NO: 20). The lentiviral expression plasmid was pCLVi(3G)-MCS-Puro, which expresses a doxycycline-responsive transactivator and the shRNA from the same vector. Expression of the transactivator is constitutive, while shRNA expression depends on a doxycycline-inducible promoter. […]
Generally, cells were plated in six-well or 35-mm plates for 24 hours, after which doxycycline was added or treatment with specific inhibitor was administered using 50 FBS media for 48 hours. […] Protein concentrations were determined from the cell lysate by using 660 nm Protein Assay Reagent (Pierce). […] The membranes were incubated with the specific antibodies overnight in […] at 4° C. followed by a 1 hour incubation with the appropriate horseradish peroxidase-conjugated secondary antibodies and signal was detected by chemiluminescence (Thermo Fisher).

Molecules are shown by their SMILES. Where a SMILES comes first, the peptide text is derived from it. The star is where a group is joined. Cbz = O=C(OCc1ccccc1)*

Turning to `CC(C)C[C@@H](C=O)NC(=O)[C@H](CC(C)C)NC(=O)[C@H](CC(C)C)NC(=O)OCc1ccccc1` [MG132] (Cbz-Leu-Leu-Leu-aldehyde), the “c-MYC levels in LZK-depleted cells” value is listed as “rescued decreases in the c-MYC levels”.
